From ChEMBL document CHEMBL1201862, “PubChem BioAssay data set” (2004)
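In this assay, cells in 96-well plates receive the compound at five concentrations for 48 hours. Endpoints are linearly interpolated between the surrounding concentrations. The concentration for 50% growth inhibition is given as GI50.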 Calls of active or inactive are those of the source. Cut-off read from the data, not from the text of the source: active = GI50 up to about 1.1 µM and inactive = higher.

Experiments:
Assay in all cases: NCI anticancer screen, dose series, 48 h
BT-549 = test system: BT-549
SF-539 = test system: SF-539
MDA-MB-231 = test system: MDA-MB-231
EKVX = test system: EKVX
SK-MEL-2 = test system: SK-MEL-2
HT-29 = test system: HT-29
KM12 = test system: KM12
HCT-116 = test system: HCT-116
M14 = test system: M14
OVCAR-5 = test system: OVCAR-5
MDA-MB-435 = test system: MDA-MB-435
MCF7 = test system: MCF7
COLO 205 = test system: COLO 205
UACC-257 = test system: UACC-257
HL-60 = test system: HL-60
CAKI-1 = test system: CAKI-1
HCC 2998 = test system: HCC 2998
IGROV-1 = test system: IGROV-1
SF-295 = test system: SF-295
LOX IMVI = test system: LOX IMVI
CCRF-CEM = test system: CCRF-CEM
MDA-N = test system: MDA-N
OVCAR-8 = test system: OVCAR-8
DU-145 = test system: DU-145
UACC-62 = test system: UACC-62
SW-620 = test system: SW-620
SK-OV-3 = test system: SK-OV-3
HCT-15 = test system: HCT-15
NCI-H460 = test system: NCI-H460
SK-MEL-28 = test system: SK-MEL-28
OVCAR-4 = test system: OVCAR-4
Hs-578T = test system: Hs-578T
OVCAR-3 = test system: OVCAR-3
SF-268 = test system: SF-268
Malme-3M = test system: Malme-3M
K562 = test system: K562
T47D = test system: T47D
A549 = test system: A549
NCI-H23 = test system: NCI-H23
MOLT-4 = test system: MOLT-4
NCI-H522 = test system: NCI-H522
ACHN = test system: ACHN
NCI-H226 = test system: NCI-H226
TK-10 = test system: TK-10
SK-MEL-5 = test system: SK-MEL-5
UO-31 = test system: UO-31
SN12C = test system: SN12C
HOP-62 = test system: HOP-62
HOP-92 = test system: HOP-92
786-0 = test system: 786-0
RXF 393 = test system: RXF 393
A498 = test system: A498
PC-3 = test system: PC-3
U-251 = test system: U-251
SNB-75 = test system: SNB-75
SNB-19 = test system: SNB-19
NCI/ADR-RES = test system: NCI/ADR-RES
RPMI-8226 = test system: RPMI-8226
SR = test system: SR

Measured: GI50

CC[C@]12C=CCN3CC[C@@]4(c5cc(Br)c(OC)cc5N(C)[C@H]4[C@@](O)(C(=O)NN)[C@@H]1O)[C@@H]32
> 100 µM: HCT-15
inactive: BT-549 36.1 µM | SF-539 30.5 µM | MDA-MB-231 70.3 µM | EKVX 59.4 µM | SK-MEL-2 29.8 µM | HT-29 > 100 µM | KM12 > 100 µM | HCT-116 > 100 µM | M14 55.5 µM | OVCAR-5 > 100 µM | MDA-MB-435 93.5 µM | MCF7 30.3 µM | COLO 205 > 100 µM | UACC-257 55 µM | HL-60 37.9 µM | CAKI-1 > 100 µM | HCC 2998 > 100 µM | IGROV-1 87.1 µM | SF-295 65.5 µM | LOX IMVI 65.6 µM | CCRF-CEM 38 µM | MDA-N 48.1 µM | OVCAR-8 46.9 µM | DU-145 > 100 µM | UACC-62 40.7 µM | SW-620 > 100 µM | SK-OV-3 75.7 µM | NCI-H460 > 100 µM | SK-MEL-28 67.3 µM | OVCAR-4 96.6 µM | Hs-578T 76.4 µM | OVCAR-3 58.9 µM | SF-268 56.1 µM | Malme-3M 69.8 µM | K562 48.2 µM | T47D 40.4 µM | A549 > 100 µM | NCI-H23 68.1 µM | MOLT-4 26.7 µM | NCI-H522 52.2 µM | ACHN 79.3 µM | NCI-H226 43 µM | TK-10 59.4 µM | SK-MEL-5 49.5 µM | UO-31 > 100 µM | SN12C 76.9 µM | HOP-62 > 100 µM | HOP-92 > 100 µM | 786-0 57.5 µM | RXF 393 22.5 µM | A498 36.8 µM | PC-3 28.1 µM | U-251 52 µM | SNB-75 18.2 µM | SNB-19 91.6 µM | NCI/ADR-RES > 100 µM

Cc1cccc(C)c1NC(=O)C(Cc1c[nH]c2ccccc12)NC(=O)OCc1ccccc1 (stereo not drawn)
22.3 µM: HCT-15
inactive: BT-549 24.8 µM | SF-539 20.2 µM | MDA-MB-231 16.7 µM | EKVX 15.2 µM | SK-MEL-2 16.9 µM | HT-29 18.7 µM | KM12 19.6 µM | HCT-116 23.9 µM | M14 11.5 µM | OVCAR-5 18.8 µM | MDA-MB-435 14.7 µM | MCF7 23.2 µM | COLO 205 13.2 µM | UACC-257 14.5 µM | HL-60 12.4 µM | CAKI-1 16.9 µM | IGROV-1 19.6 µM | SF-295 17 µM | LOX IMVI 19.5 µM | CCRF-CEM 17.8 µM | MDA-N 15.7 µM | OVCAR-8 27.3 µM | DU-145 17 µM | UACC-62 16.6 µM | SW-620 27.8 µM | SK-OV-3 22.8 µM | NCI-H460 17.7 µM | SK-MEL-28 18.9 µM | OVCAR-4 8.04 µM | Hs-578T 33.1 µM | OVCAR-3 22.9 µM | SF-268 18.7 µM | Malme-3M 20.1 µM | K562 30.2 µM | T47D 20.6 µM | RPMI-8226 15.6 µM | A549 14.6 µM | NCI-H23 24 µM | MOLT-4 15.4 µM | NCI-H522 20.1 µM | ACHN 19.8 µM | TK-10 19.2 µM | SK-MEL-5 13.5 µM | UO-31 10.3 µM | SR 22.5 µM | SN12C 21.5 µM | HOP-62 41 µM | HOP-92 22.4 µM | 786-0 20.1 µM | RXF 393 13.9 µM | A498 21.2 µM | PC-3 12.3 µM | U-251 19.5 µM | SNB-75 18.7 µM | SNB-19 14.9 µM | NCI/ADR-RES 14.4 µM

CC(=O)OCOC(=O)CN(CC(=O)OCOC(C)=O)Cc1cc2c(cc1OC(C)=O)Oc1cc(OC(C)=O)c(CN(CC(=O)OCOC(C)=O)CC(=O)OCOC(C)=O)cc1C21OC(=O)c2ccccc21
inactive: MDA-MB-231 1.45 µM | EKVX 2.52 µM | M14 1.16 µM | OVCAR-5 2.94 µM | CAKI-1 2.34 µM | SF-295 1.59 µM | OVCAR-8 1.15 µM | DU-145 1.47 µM | SK-OV-3 2.54 µM | SF-268 1.27 µM | T47D 1.4 µM | ACHN 1.38 µM | NCI-H226 1.34 µM | UO-31 1.82 µM | SN12C 1.13 µM | A498 1.25 µM | PC-3 1.42 µM | U-251 1.87 µM | SNB-75 1.36 µM | SNB-19 1.27 µM | NCI/ADR-RES 11 µM
active: BT-549 0.265 µM | SF-539 0.255 µM | SK-MEL-2 0.369 µM | HT-29 0.483 µM | HCT-116 0.303 µM | MDA-MB-435 0.782 µM | MCF7 0.342 µM | COLO 205 0.594 µM | UACC-257 0.344 µM | HL-60 0.01 µM | IGROV-1 0.277 µM | LOX IMVI 0.299 µM | CCRF-CEM 0.11 µM | MDA-N 0.309 µM | UACC-62 0.232 µM | SW-620 0.759 µM | NCI-H460 0.366 µM | SK-MEL-28 0.484 µM | OVCAR-4 0.998 µM | Hs-578T 0.345 µM | OVCAR-3 0.92 µM | Malme-3M 0.902 µM | K562 0.122 µM | A549 0.953 µM | NCI-H23 0.481 µM | MOLT-4 0.241 µM | NCI-H522 0.237 µM | TK-10 0.741 µM | SK-MEL-5 0.953 µM | SR 0.016 µM | HOP-62 1.1 µM | HOP-92 1.05 µM | 786-0 0.346 µM | RXF 393 0.34 µM
1.66 µM: HCT-15

CC(=O)OCC1OC(Nc2ccc3nc(C)n(-c4cccc(C)c4)c(=O)c3c2)C(OC(C)=O)C(OC(C)=O)C1OC(C)=O (stereo not drawn)
inactive: BT-549 > 62.5 µM | MDA-MB-231 > 62.5 µM | EKVX > 62.5 µM | SK-MEL-2 > 62.5 µM | HT-29 > 62.5 µM | KM12 > 62.5 µM | HCT-116 > 62.5 µM | OVCAR-5 > 62.5 µM | MDA-MB-435 > 62.5 µM | MCF7 > 62.5 µM | COLO 205 > 62.5 µM | UACC-257 > 62.5 µM | HL-60 > 62.5 µM | CAKI-1 > 62.5 µM | HCC 2998 > 62.5 µM | IGROV-1 > 62.5 µM | SF-295 > 62.5 µM | LOX IMVI > 62.5 µM | MDA-N > 62.5 µM | OVCAR-8 > 62.5 µM | DU-145 > 62.5 µM | UACC-62 > 62.5 µM | SW-620 > 62.5 µM | NCI-H460 > 62.5 µM | SK-MEL-28 > 62.5 µM | OVCAR-4 > 62.5 µM | Hs-578T > 62.5 µM | OVCAR-3 > 62.5 µM | SF-268 > 62.5 µM | Malme-3M > 62.5 µM | K562 > 62.5 µM | T47D > 62.5 µM | RPMI-8226 36.4 µM | NCI-H23 > 62.5 µM | MOLT-4 > 62.5 µM | NCI-H522 > 62.5 µM | ACHN > 62.5 µM | NCI-H226 > 62.5 µM | TK-10 > 62.5 µM | SK-MEL-5 > 62.5 µM | UO-31 > 62.5 µM | SR > 62.5 µM | SN12C > 62.5 µM | HOP-62 > 62.5 µM | 786-0 > 62.5 µM | RXF 393 > 62.5 µM | A498 > 62.5 µM | PC-3 > 62.5 µM | U-251 > 62.5 µM | SNB-75 > 62.5 µM | SNB-19 > 62.5 µM | NCI/ADR-RES > 62.5 µM
> 62.5 µM: HCT-15
